pIC50: −log10 of the molar value.
Molecular target: T1, GCS (Canis lupus familiaris, UniProt A0A8I3MXG6)
T1 construct: endogenous in cells; host or cells: MDCK (Madin-Darby canine kidney) cells, whole-cell lysate
T1 sequence (A0A8I3MXG6 1-394): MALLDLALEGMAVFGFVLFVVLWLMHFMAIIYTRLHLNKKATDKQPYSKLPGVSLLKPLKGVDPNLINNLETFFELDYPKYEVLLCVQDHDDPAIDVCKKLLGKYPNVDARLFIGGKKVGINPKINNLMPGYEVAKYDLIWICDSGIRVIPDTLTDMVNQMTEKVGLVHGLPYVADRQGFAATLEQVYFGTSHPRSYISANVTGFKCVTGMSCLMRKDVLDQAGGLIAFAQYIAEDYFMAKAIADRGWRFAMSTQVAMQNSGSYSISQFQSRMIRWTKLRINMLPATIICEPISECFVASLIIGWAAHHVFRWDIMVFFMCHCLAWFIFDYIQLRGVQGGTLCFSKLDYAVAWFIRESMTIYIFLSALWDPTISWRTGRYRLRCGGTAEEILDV
Assay: GCS enzymatic assay (MDCK cell lysate, NBD-ceramide to glucosylceramide, LC/MS)
Type: biochemical, canine
Conditions: Table 2, the table does not say which of the assays; for Data Range (% inhibition): class symbols D, E, F, NA (not active); for pIC50: class symbols A, B, C, read-out: Data Range (IC50 values)
Description: This assay was modified based on the study by Larsen et al. (J. Lipid Res. 2011, 53, 282). Madin-Darby canine kidney (MDCK) cell lysate was prepared using M-PER Mammalian Protein Extraction Reagent (Thermal Scientific) in the presence of a protease inhibitor cocktail (Roche). Protein concentration was determined using BCA assay kit (Pierce). […] 0.1% DMSO was used as mock treatment or control. The reaction was terminated by adding 100 μL acetonitrile solution and subjected to LC/MS analysis.
The quantitative analysis of NBD-Ceramide and glucosylceramide was performed on a Shimadzu ultra-fast liquid chromatography (Shimadzu, Japan) coupled with API 4000 triple quadrupole mass spectrometer (Applied Biosystems, Concord, Ontario, Canada). Sample separation was conducted on a Waters Xbridge™ BEH130 C18, 100 mm×4.6 mm i.d, 3.5 μm (Milford, Mass., USA). The mobile phase consisted of water and acetonitrile supplemented with 0.1% formic acid (v/v). The flow rate was 1.0 mL/min. The initial mobile phase was 20% acetonitrile and was ramped in a linear fashion to 50% acetonitrile in 0.4 min. From 0.4 to 1.5 min, the gradient was ramped to 98% acetonitrile, and then was held at […] until 8.0 min. Acetonitrile was reset to 20% in 1.5 min, and maintained until 10.0 min. The total run time was 10.0 min. The MS/MS detection was performed in ESI positive mode. The mass transition of NBD-Ceramide was m/z 576.36→558.40 under the collision energy of 15 V, and the mass transition of glucosylceramide was m/z 738.35→558.40 under 21V collision energy. The cell lysate was diluted with equal volume of acetonitrile. Aliquots of 50 μL diluted samples were added to 1.5 mL tubes, and 100 μL of acetonitrile containing internal standard (100 ng/mL tolbutamide) were added for protein precipitation. The mixture were vortexed and then centrifuged at 13000 rpm for 10 min. 70 μL of supernatant were mixed with 140 μL of H2O and the final solution were injected for LC/MS/MS analysis and IC50's and/or percent inhibitions calculated.

| SMILES | Data Range (% inhibition) | pIC50 |
| --- | --- | --- |
| O=C(N[C@H](CN1CCCC1)[C@H](O)c1ccc2c(c1)OCCO2)C1CCN(c2ccc(OC3CC3)c(Cl)c2)C1 (some centres unmarked) [Compound 20D] | E (50-74% (or less than 75%)) |  |
| O=C(N[C@H](CN1CCCC1)[C@H](O)c1ccc2c(c1)OCCO2)[C@H]1CCN(c2ccc(OC3CC3)c(Cl)c2)C1 [Compound 20E, (S)-1-(3-chloro-4-cyclopropoxyphenyl)-N-((1R,2R)-1-(2,3-dihydrobenzo[b][1,4]dioxin-6-yl)-1-hydroxy-3-(pyrrolidin-1-yl)propan-2-yl)pyrrolidine-3-carboxamide] | F (1-49% (or less than 50%)) |  |
| O=C(N[C@H](CN1CCCC1)[C@H](O)c1ccc2c(c1)OCCO2)[C@@H]1CCN(CCc2ccc(Cl)cc2)C1 [Compound 21, (R)-1-(4-chlorophenethyl)-N-((1R,2R)-1-(2,3-dihydrobenzo[b][1,4]dioxin-6-yl)-1-hydroxy-3-(pyrrolidin-1-yl)propan-2-yl)pyrrolidine-3-carboxamide] | F (1-49% (or less than 50%)) |  |
| O=C(N[C@H](CN1CCCC1)[C@H](O)c1ccc2c(c1)OCCO2)C1CCN(CCc2ccc(Cl)cc2)C1 (stereo partly drawn) [Compound 21E, 1-(4-chlorophenethyl)-N-((1R,2R)-1-(2,3-dihydrobenzo[b][1,4]dioxin-6-yl)-1-hydroxy-3-(pyrrolidin-1-yl)propan-2-yl)pyrrolidine-3-carboxamide] | F (1-49% (or less than 50%)) |  |
| O=C(N[C@H](CN1CCCC1)[C@H](O)c1ccc2c(c1)OCCO2)[C@H]1CCN(CCc2ccc(Cl)cc2)C1 [Compound 21F, (S)-1-(4-chlorophenethyl)-N-((1R,2R)-1-(2,3-dihydrobenzo[b][1,4]dioxin-6-yl)-1-hydroxy-3-(pyrrolidin-1-yl)propan-2-yl)pyrrolidine-3-carboxamide] | F (1-49% (or less than 50%)) |  |
| O=C(N[C@H](CN1CCCC1)[C@H](O)c1ccc2c(c1)OCCO2)[C@@H]1CCN(c2ccccn2)C1 [Compound 22, (R)-N-((1R,2R)-1-(2,3-dihydrobenzo[b][1,4]dioxin-6-yl)-1-hydroxy-3-(pyrrolidin-1-yl)propan-2-yl)-1-(pyridin-2-yl)pyrrolidine-3-carboxamide] | E (50-74% (or less than 75%)) |  |
| O=C(N[C@H](CN1CCCC1)[C@H](O)c1ccc2c(c1)OCCO2)C1CCN(c2ccccn2)C1 (stereo partly drawn) [Compound 22C, N-((1R,2R)-1-(2,3-dihydrobenzo[b][1,4]dioxin-6-yl)-1-hydroxy-3-(pyrrolidin-1-yl)propan-2-yl)-1-(pyridin-2-yl)pyrrolidine-3-carboxamide] | F (1-49% (or less than 50%)) |  |
| O=C(N[C@H](CN1CCCC1)[C@H](O)c1ccc2c(c1)OCCO2)[C@H]1CCN(c2ccccn2)C1 [Compound 22D, (S)-N-((1R,2R)-1-(2,3-dihydrobenzo[b][1,4]dioxin-6-yl)-1-hydroxy-3-(pyrrolidin-l-yl)propan-2-yl)-1-(pyridin-2-yl)pyrrolidine-3-carboxamide] | F (1-49% (or less than 50%)) |  |
| CC(C)Oc1ccc([C@@H](O)[C@@H](CN2CCCC2)NC(=O)[C@@H]2CCN(c3ccc(Cl)cc3)C2)cc1Cl [Compound 23, (R)-N-((1R,2R)-1-(3-chloro-4-isopropoxyphenyl)-1-hydroxy-3-(pyrrolidin-1-yl)propan-2-yl)-1-(4-chlorophenyl)pyrrolidine-3-carboxamide] |  | 7.52 to 9.00 |
| CC(C)Oc1ccc([C@@H](O)[C@@H](CN2CCCC2)NC(=O)[C@H]2CCN(c3ccc(Cl)cc3)C2)cc1Cl [Compound 23B, (S)-N-((1R,2R)-1-(3-chloro-4-isopropoxyphenyl)-1-hydroxy-3-(pyrrolidin-1-yl)propan-2-yl)-1-(4-chlorophenyl)pyrrolidine-3-carboxamide] | F (1-49% (or less than 50%)) |  |
| O=C(N[C@H](CN1CCCC1)[C@H](O)c1ccc2c(c1)OCCO2)[C@@H]1CCN(c2ccc(F)cc2)C1 [Compound 24, (R)-N-((1R,2R)-1-(2,3-dihydrobenzo[b][1,4]dioxin-6-yl)-1-hydroxy-3-(pyrrolidin-1-yl)propan-2-yl)-1-(4-fluorophenyl)pyrrolidine-3-carboxamide] |  | 7.52 to 9.00 |
